Columns and labels:
[1] = target: T1, recombinant soluble human CD73 (Homo sapiens, UniProt P21589, T376A); assay: CD73 enzyme inhibition assay with [2,8-3H]AMP, soluble human CD73; format: biochemical; conditions: [2,8-3H]AMP (5 μM) as substrate; Ki from IC50 by Cheng-Prusoff; read-out: Human soluble CD73 Ki ± SEM
T1 construct: mature human CD73 (residues 27-549) fused to 6×His-tag at the C-terminus; 6xHis (C); made in house; host or cells: Spodoptera frugiperda Sf9 insect cells (baculovirus, pAcGP67B vector)
T1 sequence (P21589 27-549 T376A): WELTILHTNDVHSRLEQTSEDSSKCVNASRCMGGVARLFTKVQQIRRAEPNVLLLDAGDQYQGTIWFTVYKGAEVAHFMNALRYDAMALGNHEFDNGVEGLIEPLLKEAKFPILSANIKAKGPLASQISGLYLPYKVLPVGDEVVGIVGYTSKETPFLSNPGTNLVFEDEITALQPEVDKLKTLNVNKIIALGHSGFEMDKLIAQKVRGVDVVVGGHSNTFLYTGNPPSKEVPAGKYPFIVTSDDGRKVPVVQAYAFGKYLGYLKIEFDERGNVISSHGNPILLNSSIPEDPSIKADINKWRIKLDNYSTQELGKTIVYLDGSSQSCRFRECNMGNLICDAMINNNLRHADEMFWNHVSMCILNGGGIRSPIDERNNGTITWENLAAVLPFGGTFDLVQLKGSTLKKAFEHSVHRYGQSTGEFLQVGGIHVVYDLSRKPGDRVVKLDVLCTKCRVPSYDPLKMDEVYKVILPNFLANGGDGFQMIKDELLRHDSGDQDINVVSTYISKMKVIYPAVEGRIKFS
Description: Compound 2b, its precursor 1, and 20 were investigated for their CD73-inhibitory potency using tritium-labeled AMP as a substrate.^20 After incubation with CD73, non-hydrolyzed substrate and inorganic phosphate were precipitated using a solution of lanthanum chloride, and the precipitate was separated from the solution containing the reaction product [2,8-^3H]adenosine by filtration through GF/B glass fiber filters (WhatmanTM GE Healthcare, Chicago, IL, USA) using a cell harvester (M-48, Brandel, Gaitherburg, MD, USA). The filtrates (ca. 1.8 mL each) were transferred to scintillation vials, scintillation cocktail ULTIMA Gold XR (PerkinElmer, Waltham, MA, USA) was added (5 mL), and the radioactivity esd quantified by scintillation counting. CD73 preparations were (1) recombinant soluble human CD73,^13 (2) recombinant soluble rat CD73,^21 both expressed in Spodoptera frugiperda 9 (Sf) cells, (3) membrane preparations of MDA-MB-231 cells,^16 a human triple-negative breast cancer cell line with high expression of CD73,^18 and (4) membrane preparations of the 4T1.2 cell line, a mouse CD73-expressing breast cancer cell line.^22 The potency of the compounds was determined by measurements of full concentration-inhibition curves. K values were calcuated from the obtained IC50 values employing the Cheng-Prusoff equation.^23
Human soluble CD73 was expressed in Spodoptera frugiperda (Sf9) insect cells and purified as previously described.^16 The cDNA encoding for the mature human CD73 (residues 27-549) fused to 6×His-tag at the C-terminus (Genbank accession no. NM_002526) corresponding to the natural variant T376A (P21589/VAR_022091, UniProtKB/Swiss-Prot) was ligated into the pAcGP67B vector. For transfection, 1 μl of the recombinant vector (1000 ng/μl) mixed with 2.5 μl of baculovirus genomic DNA ProEasy™ (AB vector, CA, USA) was used to transfect Sf9 cells grown in Insect-XPRESS™ medium (#BE12-7300, Lonza, Switzerland) supplemented with 10 mg/l gentamicin. […]

[2] = Determination of log D7.4 (1-octanol/PBS); format: physicochemical
Description: (§1) Determination of the log D7.4-value of [^18F]2. The lipophilicity of [^18F]2 was determined following the procedure described by Prante et al.^17 Triazole [^18F]2 (˜400 kBq) in PBS buffer (10 μL, pH 7.4) was added to PBS buffer (590 μL, pH 7.4) and octan-1-ol (600 μL). The two-layer mixture was shaken for 3 min on a vortex mixer at RT and centrifuged (3000 rpm) for 5 min. The main part of the octanol layer (400 μL) was collected carefully and added to a new tube with PBS buffer (400 μL, pH 7.4). The two-layer mixture was shaken again for 10 min and centrifuged for 5 min (3000 rpm). Three samples were prepared and two aliquots (á 100 μL) of both layers were measured in a g-counter 2480 Wizard2 (Perkin-Elmer, Waltham, USA). The partition coefficient was determined by dividing cpm(octanol) by cpm(PBS) and indicated as log D7.4 (exp.).
as §1, with “D7,4-value” for “D7.4-value”, “[^18F]PSB-19427.” for “[^18F]2.”, “[^18F]PSB-19427” for “[^18F]2”, “al.^28” for “al.^17”

s.c. AsPC-1 xenografts = assay: In vivo PET imaging in AsPC-1 tumor bearing mice; parameters: species or system NSG mice
Description: Animal models. All animal experiments were performed in accordance with the legal requirements of the European Community (Directive 2010/63/EU) and the corresponding German Animal Welfare Law (TierSchG, TierSchVersV) and were approved by the local authorizing agency (State Office for Nature, Environment and Consumer Protection North Rhine-Westphalia). MDA-MB-231 or AsPC-1 cells were cultivated in RPMI supplemented with 10% fetal calf serum and 100 U/mL penicillin and 100 μg/mL streptomycin. 5×10^6 MDA-MB-231 or AsPC-1 cells were injected subcutaneously into the shoulder region of 10 to 12 week old NSG mice (NOD.Cg-Prkdcscidll2rgtm1Wjl/SzJ, Charles River Laboratories). […]
In vivo Imaging. […] Three-dimensional volumes of interest (VOIs) were defined over the respective organs in CT data sets, transferred to the coregistered PET data, and analyzed quantitatively. Regional uptake was calculated as a percentage of injected dose by dividing counts per milliliter in the VOI by total counts in the mouse multiplied by 100 (% ID/mL).
(§2) Ex vivo gamma counter measurements. […] Ex vivo biodistribution of radioactivity was analyzed by scintillation counting (Wizard2 gamma counter, Perkin-Elmer Life Science) and the radioactivity in respective organs decay-corrected and calculated as % ID per gram tissue (% ID/g).

[3] = system: s.c. MDA-MB-231 xenografts; assay: In vivo PET imaging in MDA-MB-231 tumor bearing mice; parameters: species or system NSG mice
Description: Animal models. All animal experiments were performed in accordance with the legal requirements of the European Community (Directive 2010/63/EU) and the corresponding German Animal Welfare Law (TierSchG, TierSchVersV) and were approved by the local authorizing agency (State Office for Nature, Environment and Consumer Protection North Rhine-Westphalia). MDA-MB-231 or AsPC-1 cells were cultivated in RPMI supplemented with 10% fetal calf serum and 100 U/mL penicillin and 100 μg/mL streptomycin. 5×10^6 MDA-MB-231 or AsPC-1 cells were injected subcutaneously into the shoulder region of 10 to 12 week old NSG mice (NOD.Cg-Prkdcscidll2rgtm1Wjl/SzJ, Charles River Laboratories). Two tumors were inoculated per animal and growth was followed by digital caliper measurements (volume=½ (length*width^2)).
In vivo Imaging. Adult C57bl/6 (biodistribution study, 21±1 g) or tumor bearing NSG mice (24±3 g) were anesthetized by isoflurane/O2 and one lateral tail vein was cannulated using a 27 G needle connected to 15 cm polyethylene catheter tubing. ^18F-PSB-19427 (˜450 kBq/g body weight) were injected as a bolus (50 μL compound flushed with 50 μL saline) via the tail vein and subsequent PET scanning was performed. In the blocking studies, a subgroup of tumor-bearing mice was injected with ˜1000 fold excess of unlabeled PSB-19427 10 minutes prior to radiotracer injection. […] Three-dimensional volumes of interest (VOIs) were defined over the respective organs in CT data sets, transferred to the coregistered PET data, and analyzed quantitatively. Regional uptake was calculated as a percentage of injected dose by dividing counts per milliliter in the VOI by total counts in the mouse multiplied by 100 (% ID/mL).
as §2

Row | Compound | Ki [1] [nM] | factor of increase of measured solubility in PBS-buffer (1-octanol/PBS) versus clog P ([2]; compared to clog P 0.22) | factor of increase of measured solubility in PBS-buffer (1-octanol/PBS) versus clog P ([2]; compared to clog P 0.47) | logD ([2]; octan-1-ol/PBS buffer, 1-octanol/PBS pH 7.4) | change of tumor-to-muscle ratios in blocking study (s.c. AsPC-1 xenografts; AsPC-1, pretreating with PSB-12651 (7) 10 min before tracer injection) | accumulation of the tracer in the tumor xenografts as compared to muscle tissue (s.c. AsPC-1 xenografts; PET 4 h p.i., i.v., AsPC-1 xenografts) | change of tumor-to-muscle ratios in blocking study ([3]; MDA-MB-231, pretreating with unlabeled compound 2 10 min before tracer injection) | accumulation in the tumor as compared to FDG ([3]; MDA-MB-231 tumors, 90 min and 4 h, especially in relation to muscle uptake) | accumulation of the tracer in the tumor xenografts as compared to muscle tissue ([3]; PET 4 h p.i., i.v., MDA-MB-231 xenografts)
1 | C#Cc1ccc(CN(CCC)c2nc(Cl)nc3c2ncn3[C@@H]2O[C@H](COP(=O)(O)CP(=O)(O)O)C(O)C2O)cc1 (stereo partly drawn) [Compound 1] | 0.372 ± 0.03 |  |  |  |  |  |  |  | 
2 | CCCN(Cc1ccc(-c2cn(CC[18F])nn2)cc1)c1nc(Cl)nc2c1ncn2C1O[C@H](COP(=O)(O)CP(=O)(O)O)C(O)C1O (stereo partly drawn) [[^18F]2, [^18F]-[((2R,3S,4R,5R)-5-{2-chloro-6-[(4-{1-[2-(fluoro)ethyl]-1H-1,2,3-triazol-4-yl}benzyl)(propyl)amino]-9H-purin-9-yl}-3,4-dihydroxytetrahydrofuran-2-yl)methoxy]methylenebisphosphonic acid] |  | 2.2 | 3.9 | -0.12 ± 0.03 | significant decrease of tumor-to-muscle ratios | pronounced accumulation | significant decrease of tumor-to-muscle ratios | higher accumulation | pronounced accumulation

Source: patent US20250382322A1, “DIAGNOSTICS FOR DETECTING ECTO-5'-NUCLEOTIDASE (CD73)” (EBERHARD KARLS UNIVERSITÄT TÜBINGEN, priority 2022, published 2025)
